Data taken from patent publication US20030108620A1, “Pharmaceutical composition comprising a physiologically acceptable vanadium compound, salt or complex and at least a component selected from a na+/hinhibitors, cyclo-oxygenase inhibitors and caspase inhibitors” (priority 1999, published 2003).

What was measured:
[1] = system: hearts of phenobarbital anaesthetized rats; assay: Infarcted area after 60 minutes coronary artery occlusion and 180 minutes of reperfusion in anaesthetized rats; type: in vivo, rat; conditions: for LA/AR ratio: normothermia (36.5-37.5° C.), mean±standard error margin, n=6, P<0.001, pretreated 25 minutes prior to CAO; for IA (% AR) / % Reduction: rat, 60 min CAO and 180 min reperfusion; for IA (% AR): i.v. bolus 25 minutes prior to CAO, BMOV 3.3 mg/kg, DMA 3.0 mg/kg; for % Reduction: reduction of IA (% AR) versus control
Method: Area at risk (AR) and infarcted area (IA) were determined in hearts of phenobarbital anaesthetized rats after 60 minutes coronary artery occlusion (CAO) and 180 minutes of reperfusion. […] The mean AR expressed as percentage of the left ventricle was not different between the control and the experimental group.

deep burn wounds, dermis = assay: Deep burn wound model in the Yorkshire pig, preservation of the dermis; type: in vivo, Yorkshire White; conditions: intravenously in a single dose; for % Preservation of dermis: equal dose in g/kg bodyweight
Text: The Yorkshire pig has been chosen as the experimental animal because of all animal species this domestic pig seems to be the one with morphological and functional skin characteristics nearest to human skin and so best fulfils the requirements of a model for human skin. In basic architecture it resembles human skin in the relative thickness of the epidermis and dermis, the presence of epidermal ridges, a distinct dermal papillary layer and a deep layer of subdermal fat. Compared to human the elastic fibre content of porcine dermis is relatively low, but higher than in any other species. […] Studies on the proliferation rate of porcine epidermis show parallels with those of humans. The keratinous proteins are similar. Unlike the skin of rodents, the follicular pattern in pigs and humans is relatively sparse and arranged as single hairs or in groups of two or three follicles. […] The regulation of body temperature by the skin is more evident in humans than in the pig. In the skin of the pig no eccrine glands are found. It does have apocrine glands, but their role in thermoregulation remains debatable. The vascular anatomy of pig skin consists of a three layered network; lower, mid-dermal and sub epidermal. The size, orientation and distribution of the vessels are strikingly similar to human skin, but it does differ from humans in that the sub epidermal network is less dense. The vascularisation of the lower region of the follicle corresponds to that in humans. The healing of deep dermal bums, which depends on this phenomenon, might also be analogous. Studies on the thermal properties of porcine skin as a function of depth have been performed by measuring the tissue water content.
Protocol 1a: Twelve identical deep burn wounds were inflicted in each animal. The animal model used is developed in the Burn Research Institute (Beverwijk, The Netherlands) and is a standard for all of the experimental burn wound research. The model is also accepted by the animal experimental commission of the University of Amsterdam.
Protocol 1b: Six biopsies of 6 mm of the burned area were taken from each big and transferred to a non-burned area. Six biopsies of 6 mm of the non-burned area were be taken from each pig and transferred to a burned area. (Determination of the indirect injury) Animals: pig, Yorkshire White, female, +/− 30 kg. […]

swine myocardium = conditions: also when administered after the onset of ischaemia; cited from earlier work

Compound	LA/AR ratio [1] [%]	IA (% AR) [1] [% AR]	% Reduction [1] [%]	protection of structures in the dermis (deep vascular plexus, hair-adnexes, sweat glands) (deep burn wounds, dermis)	% Preservation of dermis (deep burn wounds, dermis)	infarct size (swine myocardium)
Cc1occc(=O)c1[O-].Cc1occc(=O)c1[O-].[O]=[V+2] [BMOV, bis(maltolato)oxovanadium(IV)]	45±3	45	36	protected	40-50%	
CN(C)c1nc(N)c(C(=O)N=C(N)N)nc1Cl [DMA, dimethylamiloride]	45±3	55	21	protected	20%	
CS(=O)(=O)O.CS(=O)(=O)c1cc(C(=O)NC(=N)N)ccc1N1CCCCC1 [HOE 694, (3-methylsulfonyl-4-piperidinobenzoyl)-guanidine methanesulfonate]						substantial reduction of the infarct size
